Measurements taken from patent US8633312B2, “Dibenzocycloheptatone derivatives and pharmaceutical agents containing said compounds” (c-a-i-r biosciences GmbH, priority 2008, dated 2014).

What was measured:
p38 MAP kinase = p38 MAP kinase (Homo sapiens, UniProt Q16539); test: Inhibition of p38 MAP kinase, IC50 relative to SB-203580; format: biochemical; conditions: relative activity = ratio IC50 (SB-203580)/IC50 (test compound); the higher the value, the more active
TNF-α = test: Inhibition of TNF-α release, IC50 relative to SB-203580; format: cell-based; conditions: relative activity = ratio IC50 (SB-203580)/IC50 (test compound); the higher the value, the more active
Source text: The action spectrum of the compounds as inhibitors of the release of TNF-α and IL-1β was investigated with the aid of the test systems as described by Donat C. and Laufer S. in Arch. Pharm. Pharm. Med. Chem. 333, Suppl. 1, 1-40, 2000. The IC50 values obtained were set in relation to the values for the compound SB-203580 of the formula
The numerical values given in the following table are therefore the relative activity, calculated from the ratio of IC50 (SB-203580)/IC50 (test compound). […] The compounds in which R1 represents H represent the prior art according to WO2006/120010.

p38 MAP kinase, sequence (Q16539 whole entry): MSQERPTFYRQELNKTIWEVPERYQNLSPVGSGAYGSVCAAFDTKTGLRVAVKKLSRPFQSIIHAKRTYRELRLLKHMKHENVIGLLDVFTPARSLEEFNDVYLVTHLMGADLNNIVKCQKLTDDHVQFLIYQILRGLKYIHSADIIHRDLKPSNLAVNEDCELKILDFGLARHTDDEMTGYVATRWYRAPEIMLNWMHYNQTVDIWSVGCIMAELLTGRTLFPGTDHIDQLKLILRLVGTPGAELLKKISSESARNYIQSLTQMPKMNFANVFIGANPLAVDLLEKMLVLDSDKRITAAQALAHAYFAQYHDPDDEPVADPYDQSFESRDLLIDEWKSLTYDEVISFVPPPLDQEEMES

Row | SMILES | p38 MAP kinase (p38 MAP kinase) | Inhibition of TNF-α (TNF-α) | melting point [°C]
1 | O=C1c2ccc(Nc3ccc(F)cc3F)cc2CCc2ccc(OC3CCOCC3)cc21 [2-(2,4-Difluoroanilino)-7-(2-tetrahydropyran-4-yl-oxy)-10,11-dihydrodibenzo[a,d]-cyclohepten-5-one] | 0.74 | 1.98 | 
2 | O=C1c2ccc(Nc3ccc(F)cc3F)cc2CCc2ccc(OCCCO)cc21 [2-(2,4-Difluoroanilino)-7-(3-hydroxy-propoxy)-10,11-dihydrodibenzo[a,d]-cyclohepten-5-one] | 4.85 | >5 | 
3 | O=C1c2ccc(Nc3ccc(F)cc3F)cc2CCc2ccc(O)cc21 [2-(2,4-Difluoroanilino)-7-hydroxy-10,11-dihydrodibenzo[a,d]-cyclohepten-5-one] | 2.03 | 1.80 | 
4 | COc1ccc2c(c1)C(=O)c1ccc(Nc3ccc(F)cc3F)cc1CC2 [2-(2,4-Difluoroanilino)-7-methoxydibenzosuberone] | 1.59 | 0.70 | 
5 | O=C1c2ccc(Nc3ccc(F)cc3F)cc2CCc2cc(OCCO)ccc21 [2-(2,4-Difluorophenylamino)-8-(2-hydroxyethoxy)-10,11-dihydrodibenzo[a,d]-cyclohepten-5-one] | 2.60 |  | 
6 | O=C1c2ccc(Nc3ccc(F)cc3F)cc2CCc2cc(OCCN3CCOCC3)ccc21 [2-(2,4-Difluorophenylamino)-8-(2-morpholin-4-yl-ethoxy)-10,11-dihydrodibenzo[a,d]cyclohepten-5-one] | 2.53 |  | 
7 | COc1ccc2c(c1)CCc1cc(Nc3ccc(F)cc3F)ccc1C2=O [2-(2,4-Difluorophenylamino)-8-methoxy-10,11-dihydrodibenzo[a,d]cyclo-hepten-5-one] | 2.60 |  | 
8 | COc1ccc2c(c1)C(=O)c1ccc(Nc3ccc(F)cc3N)cc1CC2 [2-(2-Amino-4-fluoroanilino)-7-methoxydibenzosuberone] | 0.92 | 0.73 | 
9 | Nc1ccccc1Nc1ccc2c(c1)CCc1ccc(OC[C@@H](O)CO)cc1C2=O [2-(2-Aminoanilino)-7-[2S-,3-dihydroxypropoxy]-10,11-dihydrodibenzo[a,d]-cyclohepten-5-one] | 1.54 | >5 | 
10 | COc1ccc2c(c1)C(=O)c1ccc(Nc3ccccc3N)cc1CC2 [2-(2-Aminoanilino)-7-methoxydibenzosuberone] | 1.00 | 0.91 | 
11 | COc1ccc2c(c1)C(=O)c1ccc(Nc3ccccc3OC)cc1CC2 [2-(2-Methoxyanilino)-7-methoxydibenzosuberone] | 0.11 | 0.18 | 
12 | CC1(C)OC[C@H](COc2ccc3c(c2)C(=O)c2ccc(Nc4ccccc4N)cc2CC3)O1 [2-(Aminoanilino)-7-(S-1,2-isopropylideneglycer-3-yl)-10,11-dihydrodibenzo[a,d]-cyclohepten-5-one] | 1.31 | >5 | 
13 | Nc1ccc2c(c1)COc1cc(Nc3ccc(F)cc3N)ccc1C2=O [3-(2-Amino-4-fluorophenylamino)-8-amino-6H-dibenzo[b,e]oxepin-11-one] | 1.15 | 0.24 | 194.5
14 | Nc1ccc2c(c1)COc1cc(Nc3ccccc3N)ccc1C2=O [3-(2-Aminophenylamino)-8-amino-6H-dibenzo[b,e]oxepin-11-one] | 0.93 |  | 203.9
15 | O=C1c2ccc(Nc3ccc(F)cc3F)cc2CCc2c(OCCN3CCOCC3)cccc21 [8-(2,4-Difluorophenylamino)-1-(2-morpholin-4-yl-ethoxy)-10,11-dihydrodibenzo[a,d]cyclo-hepten-5-one] | 1.26 |  | 
16 | O=C1c2ccc(Nc3ccc(F)cc3F)cc2CCc2c(O)cccc21 [8-(2,4-Difluorophenylamino)-1-hydroxy-10,11-dihydrodibenzo[a,d]cyclohepten-5-one] | 2.26 | 0.06 | 
17 | COc1ccccc1Nc1ccc2c(c1)OCc1cc(N)ccc1C2=O [8-Amino-3-(2-methoxyphenylamino)-6H-dibenzo[b,e]oxepin-11-one] | 0.14 | 0.04 | 68.4
18 | O=C1c2ccc(Nc3ccc(F)cc3F)cc2CCc2c(OC[C@H](O)CO)cccc21 [(R)-8-(2,4-Difluorophenylamino)-1-(2,3-dihydroxypropoxy)-10,11-dihydrodibenzo-[a,d]cyclohepten-5-one] | 1.76 |  | 
19 | Nc1ccc2c(c1)COc1cc(Nc3ccc(F)cc3F)ccc1C2=O [Example 82, 3-(2,4-Difluorophenylamino)-8-amino-6H-dibenzo[b,e]oxepin-11-one] |  |  | 184 to 193
20 | Nc1ccc2c(c1)COc1cc(Nc3ccc(C(F)(F)F)cc3N)ccc1C2=O [Example 92, 8-Amino-3-(2-amino-4-trifluoromethylphenylamino)-6H-dibenzo[b,e]oxepin-11-one] |  |  | 93.9
21 | O=C1c2ccc(-n3cnnn3)cc2COc2cc(Nc3ccc(F)cc3F)ccc21 [Example 95, 3-(2,4-Difluorophenylamino)-8-tetrazol-1-yl-6H-dibenzo[b,e]oxepin-11-one] |  |  | 59
22 | O=C1c2ccc(NC(=O)N3CCOCC3)cc2COc2cc(Nc3ccc(F)cc3F)ccc21 [Morpholine-4-carboxylic acid [3-(2,4-difluorophenylamino)-1-oxo-6,11-dihydrodibenzo[b,e]oxepin-8-yl]amide] | 0.51 |  | 244.3
